In data set [1] the test system is E. coli MG1655. Kind of data set: Growth curves of E. coli MG1655 with antibiotics, with or without LpxC inhibitors (antibiotic potentiation). For Activity: key: active (1); inactive (0). The note with it: for Activity: combined action together with the antibiotic, marking used for QSAR; for potentiation of kanamycin (sensitivity of cells): kanamycin 0.62 μM; for potentiation of kanamycin (sensitivity of cells) / potentiation of rifampicin (sensitivity of cells): inhibitor 50 or 100 µM; for potentiation of kanamycin (sensitivity of cells) / potentiating activity with nalidixic acid (growth inhibition) / potentiation of rifampicin (sensitivity of cells): OD600 growth curves; for potentiating activity with nalidixic acid (growth inhibition): nalidixic acid 17.22 μM, inhibitor 50–100 µM; for potentiation of rifampicin (sensitivity of cells): rifampicin 6.08 μM. The class given is cell-based, Escherichia coli. The method, then:
Escherichia coli strain MG1655 and Pseudomonas aeruginosa strain ATCC 27853 were obtained from the American Type Culture Collection (ATCC; Rockville, MD, USA). Subculturing and inoculum preparation were prepared according to the Clinical and Laboratory Standards Institute (CLSI) recommended method, M7-A9 [42], using MHA and MHB.
Growth curves were obtained with a Bioscreen C automated growth analysis system. Cultures of E. coli MG1655 were grown overnight at 37 °C, diluted 1:100 in fresh medium, inoculated into honeycomb wells in triplicate, and grown at 37 °C with maximum shaking using the platform of the Bioscreen C instrument. […] OD600 values were recorded automatically at specified times, and the means of the triplicate cultures were plotted.

A short description of data set [2]: Cytotoxicity assay (Alamar Blue). The class given is cell-based. The note with it: human, HEK293 cells, 72 h exposure, mean ± SD, at least 3 independent experiments. The procedure: The HEK293 cell line was obtained from the ECACC (European Collection of Authenticated Cell Cultures, cat. 85120602, Salisbury, UK). The cells were grown in monolayer culture in Dulbecco’s Modified Eagle Medium (DMEM) (PanEco, Moscow, Russia) supplemented with 2 mM of L-glutamine, 1% penicillin/streptomycin (Capricorn Scientific, Ebsdorfergrund, Germany), and 10% heat-inactivated fetal bovine serum (HyClone, Cytiva, Pasching, Austria) in a humidified atmosphere of 5% CO2 and at 37 °C (Binder, Tuttlingen, Germany). For analysis, the HEK293 cells were seeded into a 96-well plate (Corning Incorporated, Corning, NY, USA) in 100 μL of complete culture medium at a final concentration of 1 × 10^4 cells/well and cultured for 24 h for proper attachment. Subsequently, the medium was removed, and cells were exposed to the test inhibitor with different concentrations for 72 h in 100 μL of fresh complete culture medium. The sensitivity of the cells to test inhibitor molecules was detected using the vital dye Alamar Blue (Invitrogen, Carlsbad, CA, USA). The Alamar Blue assay was performed according to the procedure described by O’Brien et al.. After incubation with test inhibitor molecules, 10 μL of Alamar Blue reagent was added to each well, cell culture plates were returned to a humidified incubator, and the fluorescence was read after 3 h. The plates were exposed to an excitation wavelength of 545 nm, and the emission at 600 nm was measured with the CLARIOstar Plus (BMG Labtech, Ortenberg, Germany, Software Version 5.70 R2). To determine corresponding 50% cellular cytotoxicity (CC50) values, a four-parameter sigmoidal fit curve model (GraphPad Prism 8 software) was used to measure the data.
On the technique in general: Alamar Blue is a resazurin reagent that responds to reducing activity.

“Also recorded” adds a separate entry of the source. A value given as a limit tells only on which side of the number the result lay.

As for `COc1ccc(-c2noc(C(=O)NO)n2)cc1` [Compound 4e], the melting point (commonly the temperature of the solid-liquid transition) was 144 °C (dec.). Moreover, in data set [1], the Activity amounted to 0. Further, the CC50 (as a rule, the concentration that lowers cell viability or growth by half) at 72 h in data set [2] was over 250 µM.

For the compound `O=C(NO)c1nnc(-c2cccc(I)c2)o1` [Compound 30b, N-Hydroxy-5-(3-iodophenyl)-1,3,4-oxadiazole-2-carboxamide], the melting point was 274.9 °C (dec.). In data set [1], the Activity turned out to be 1, the “potentiation of kanamycin (sensitivity of cells)” value (“potentiation of kanamycin” for short) is listed as “not to kanamycin”, the “potentiating activity with nalidixic acid (growth inhibition)” value was “inhibited bacterial growth less effectively; also recorded: weak potentiating activity” and the “potentiation of rifampicin (sensitivity of cells)” value (“potentiation of rifampicin” below) is recorded as “significantly increased the sensitivity”. Also, the CC50 at 72 h in data set [2] is over 200 µM.

As to `O=C(CCc1nc(-c2ccc(OC(F)(F)F)cc2)no1)NO` [Compound 17b], the melting point was 120 °C (dec.). For the same compound, the Activity in data set [1] came out at 0. Further, the CC50 at 72 h in data set [2] is 42.4 ± 4.58 µM.

Regarding `O=C(CCc1nc(-c2c(F)cccc2F)no1)NO` [Compound 17a], the melting point is 99 °C (dec.). In addition, the Activity in data set [1] is 0. In addition, the half-maximal cytotoxic concentration (CC50) at 72 h in data set [2] stood at 30.8 ± 3.71 µM.

Turning to `O=C(NO)c1cccc(-c2nc(-c3cc(F)c(F)c(F)c3)no2)c1` [Compound 14c], the melting point is 188.5 °C (dec.). For the same compound, in data set [1], the Activity is recorded as 0. This compound also displayed a CC50 at 72 h in data set [2] of 4.53 ± 1.22 µM.

For `COc1ccc(-c2nnc(C(=O)NO)o2)cc1OC` [Compound 30f, 5-(3,4-Dimethoxyphenyl)-N-hydroxy-1,3,4-oxadiazole-2-carboxamide], the melting point was 130.7 °C (dec.). In data set [1], the Activity was 0. The compound also gave a CC50 at 72 h in data set [2] of 478 ± 50.5 µM.

As to `O=C(NO)c1ccc(-c2nc(-c3ccc(OC(F)(F)F)cc3)no2)cc1` [Compound 14d], the melting point was 236 °C (dec.). For the same compound, in data set [1], the Activity is listed as 0. The CC50 at 72 h in data set [2] came to 5.28 ± 1.05 µM.

With `O=C(Cc1noc(-c2cccc(I)c2)n1)NO` [Compound 23d], the melting point is 156.3 °C (dec.). Moreover, the Activity in data set [1] is on record as 0. Moreover, in data set [2], the CC50 at 72 h stood at 171 ± 22.9 µM.

Consider `O=C(NO)c1nc(-c2ccc(I)cc2)no1` [Compound 4f], for which the melting point is 181.3 °C (dec.). For the same compound, the Activity in data set [1] turned out to be 0. The same compound came in with a CC50 at 72 h in data set [2] of 367 ± 53.9 µM.

For the compound `O=C(CCc1nc(-c2cc(F)c(F)c(F)c2)no1)NO` [Compound 17c], the melting point is 122 °C (dec.). The Activity in data set [1] was determined as 0. For the same compound, the CC50 at 72 h in data set [2] turned out to be 59.2 ± 7.27 µM.

In the case of `O=C(Cc1noc(-c2ccc(Cl)cc2)n1)NO` [Compound 23a], the melting point is 174 °C (dec.). Besides, in data set [1], the Activity turned out to be 1, the “potentiation of kanamycin” value is on record as “significantly increased the sensitivity”, the “potentiating activity with nalidixic acid (growth inhibition)” value is listed as “inhibited bacterial growth less effectively; also recorded: less effective” and the “potentiation of rifampicin” value is on record as “significantly increased the sensitivity”. Besides, the half-maximal cytotoxic concentration (CC50) at 72 h in data set [2] was 112 ± 18.6 µM.

In the case of `O=C(Cc1nc(-c2c(F)cccc2F)no1)NO` [Compound 9a], the melting point is 149.7 °C (dec.). Further, in data set [1], the Activity came out at 0. Further, in data set [2], the CC50 at 72 h was 188 ± 31.2 µM.

As to `COc1cccc(-c2nnc(C(=O)NO)o2)c1OC` [Compound 30e, 5-(2,3-Dimethoxyphenyl)-N-hydroxy-1,3,4-oxadiazole-2-carboxamide], the melting point is 166.7 °C (dec.). Besides, in data set [1], the Activity was 0. Half-maximal cytotoxicity in data set [2] (CC50 at 72 h) was put at 770 ± 58.4 µM.

As for `O=C(NO)c1nnc(-c2ccc(I)cc2)o1` [Compound 30a, N-Hydroxy-5-(4-iodophenyl)-1,3,4-oxadiazole-2-carboxamide], the melting point was 184.4 °C (dec.). Moreover, in data set [1], the Activity is 0. Besides, half-maximal cytotoxicity in data set [2] (CC50 at 72 h) was put at 62.2 ± 9.88 µM.

Turning to `O=C(Cc1nc(-c2ccc(OC(F)(F)F)cc2)no1)NO` [Compound 9b], the melting point was 177 °C (dec.). In addition, the Activity in data set [1] was determined as 0. In data set [2], this compound yielded a half-maximal cytotoxic concentration (CC50) at 72 h of 108 ± 23.9 µM.

Consider `O=C(NO)c1cccc(-c2noc(-c3ccccc3F)n2)c1` [Compound 26], for which the melting point is 199.3 °C (dec.). Besides, in data set [1], the Activity is on record as 0. The same compound returned a CC50 at 72 h in data set [2] of 21.7 ± 3.43 µM.

As for `Cc1cccc(-c2noc(CCC(=O)NO)n2)c1` [Compound 17d], the melting point is 115.8 °C (dec.). This compound also registered a CC50 at 72 h in data set [2] of 21.3 ± 2.53 µM.

On to `Cc1cccc(-c2noc(C(=O)NO)n2)c1` [Compound 4d], for which the melting point was 106 °C (dec.). In data set [1], the Activity is given as 0. Also, the CC50 at 72 h in data set [2] came to 457 ± 18.2 µM.

For the compound `O=C(NO)c1nc(-c2ccc(OC(F)(F)F)cc2)no1` [Compound 4b], the melting point is 108.6 °C (dec.). The Activity in data set [1] is listed as 0. Moreover, half-maximal cytotoxicity in data set [2] (CC50 at 72 h) was put at 380 ± 10.2 µM.

Regarding `O=C(Cc1noc(-c2cccc(Cl)c2)n1)NO` [Compound 23c], the melting point was 146 °C (dec.). Further, in data set [1], the Activity came to 1, the “potentiation of kanamycin” value is recorded as “significantly increased the sensitivity”, the “potentiating activity with nalidixic acid (growth inhibition)” value is on record as “inhibited bacterial growth less effectively; also recorded: less effective” and the “potentiation of rifampicin” value is given as “significantly increased the sensitivity”. Besides, the midpoint of cytotoxicity in data set [2], the CC50 at 72 h, lay at 143 ± 3.84 µM.

`O=C(NO)c1ccc(-c2nc(-c3ccccc3)no2)cc1` [Compound 14e]: the melting point was 265.4 °C (dec.). In data set [1], the Activity came to 0. This compound registered a CC50 at 72 h in data set [2] of 15 ± 0.53 µM.

On to `O=C(NO)c1cccc(-c2nc(-c3c(F)cccc3F)no2)c1` [Compound 14a], for which the melting point is 204.2 °C (dec.). In addition, the Activity in data set [1] was found to be 0. The CC50 at 72 h in data set [2] turned out to be 25.5 ± 3.11 µM.

As to `Cc1cc(F)ccc1-c1nnc(C(=O)NO)o1` [Compound 30c, 5-(4-Fluoro-2-methylphenyl)-N-hydroxy-1,3,4-oxadiazole-2-carboxamide], the melting point is 259.6 °C (dec.). Further, in data set [1], the Activity is recorded as 0. The same compound gave a CC50 at 72 h in data set [2] of over 200 µM.

Take `O=C(NO)c1cccc(-c2nc(-c3ccc(OC(F)(F)F)cc3)no2)c1` [Compound 14b]: the melting point is 191 °C (dec.). Further, in data set [1], the Activity is listed as 0. In addition, the CC50 at 72 h in data set [2] was determined as 6.39 ± 1.32 µM.

As for `O=C(NO)c1nc(-c2cc(F)c(F)c(F)c2)no1` [Compound 4c], the melting point was 133.6 °C (dec.). Besides, the Activity in data set [1] was determined as 0. Besides, the 50% cytotoxic concentration (CC50) at 72 h in data set [2] is over 500 µM.

For the compound `COc1ccc(-c2nnc(C(=O)NO)o2)c(OC)c1` [Compound 30d, 5-(2,4-Dimethoxyphenyl)-N-hydroxy-1,3,4-oxadiazole-2-carboxamide], the melting point is 197.3 °C (dec.). The Activity in data set [1] came to 0. In data set [2], this compound displayed a CC50 at 72 h of over 600 µM.

For `O=C(Cc1noc(-c2ccc(I)cc2)n1)NO` [Compound 23b], the melting point is 211.6 °C (dec.). Moreover, the Activity in data set [1] came to 0. In data set [2], this compound yielded a half-maximal cytotoxic concentration (CC50) at 72 h of 169 ± 22.5 µM.

With `O=C(NO)c1nc(-c2c(F)cccc2F)no1` [Compound 4a], the melting point was 117.4 °C (dec.). For the same compound, the Activity in data set [1] is 0. In data set [2], this compound yielded a CC50 at 72 h of over 500 µM.

(Values after paper PMC10779255, “Novel Hydroxamic Acids Containing Aryl-Substituted 1,2,4- or 1,3,4-Oxadiazole Backbones and an Investigation of Their Antibiotic Potentiation Activity” (International Journal of Molecular Sciences, 2023).)
